We go through eight compounds from article PMC6522510 (Nature Communications, 2019).

Like-named read-outs stand apart in the source and are kept apart here.

Some test systems named below: CHRF288-11; ML-2; M07e; CMK; MV4-11; MOLM-13; CMS; U937.
Design in all cases: species or system AML cell lines (8); Primary HTS, single concentration about 10 uM, Cell Titer Glo viability; log10 luminescence, per cent inhibition relative to cycloheximide control
Holding throughout (conditions): 72 h, relative to cycloheximide control, log10 luminescence, inhibitor
(In ATP-based viability assays light output follows the ATP content of the culture.)

In the test on CHRF288-11, `COc1cc2ncn(-c3cc(OCc4ccccc4C(F)(F)F)c(C(=O)N(C)C)s3)c2cc1OC` [SJ000573307-1, U22436/129/1] yielded a CHRF288-11 %inh of 2.061%. Also, the ML-2 %inh in the test on ML-2 was -1.707%. In addition, the M07e %inh with M07e was -4.272%. For the same compound, the CMK %inh in the test with CMK is reported as 4.289%. For the same compound, in the test on MV4-11, the MV4-11 %inh is given as 8.508%. Besides, the MOLM-13 %inh with MOLM-13 is reported as 15.46%. Further, the CMS %inh with CMS is given as -4.162%. Further, the U937 %inh in the test with U937 is on record as 7.074%.
In the test on CHRF288-11, `CSc1c(C2=C(c3cn(C)c4ccccc34)C(=O)NC2=O)c2ccccc2n1C` [SJ000581035-1] displayed a CHRF288-11 %inh of 9.742%. For the same compound, the ML-2 %inh in the test on ML-2 is 21.47%. Moreover, in the test on M07e, the M07e %inh is listed as 31.51%. Moreover, the CMK %inh with CMK amounted to 87.18%. Also, the MV4-11 %inh with MV4-11 amounted to 31.9%. The MOLM-13 %inh in the test with MOLM-13 is on record as 28.45%. Also, the CMS %inh with CMS amounted to 16.27%. The U937 %inh in the test with U937 was determined as 26.62%.
The compound `C[C@]12C=CC(=O)C=C1CC[C@@H]1[C@@H]2C(=O)C[C@@]2(C)[C@H]1CC[C@]2(O)C(=O)CO` [SJ000285543-4, PREDNISONE] came in with a CHRF288-11 %inh in the test on CHRF288-11 (CHRF288-11 %inh, 10 µM) of 3.346%. For the same compound, in the test with ML-2 (ML-2 %inh, 10 µM), the ML-2 %inh is given as -1.792%. Besides, the M07e %inh with M07e (M07e %inh, 10 µM) was -1.735%. For the same compound, the CMK %inh in the test on CMK (CMK %inh, 10 µM) is -3.067%. Also, in the test with MV4-11 (MV4-11 %inh, 10 µM), the MV4-11 %inh is given as -0.9421%. Further, the MOLM-13 %inh in the test on MOLM-13 (MOLM-13 %inh, 10 µM) is given as -1.419%. In the test on CMS (CMS %inh, 10 µM), the CMS %inh was -1.906%. Moreover, the U937 %inh in the test on U937 (U937 %inh, 10 µM) is given as -1.889%.
Regarding `NS(=O)(=O)c1cccc(-c2ccc3c(NC(=O)C4CC4)n[nH]c3c2)c1` [SJ000573205-1, VB100064-175A1], the CHRF288-11 %inh in the test with CHRF288-11 is 4.666%. Further, the ML-2 %inh with ML-2 stood at 8.415%. Also, the M07e %inh in the test on M07e is listed as -1.196%. Also, the CMK %inh in the test on CMK is listed as 1.524%. For the same compound, in the test with MV4-11, the MV4-11 %inh is on record as 1.069%. Further, the MOLM-13 %inh in the test on MOLM-13 is 11.82%. In the test with CMS, the CMS %inh is -2.181%. The U937 %inh in the test on U937 stood at 7.36%.
As for `CC1(C)O[C@@H]2C[C@H]3[C@@H]4CCC5=CC(=O)CC[C@]5(C)[C@@]4(F)[C@@H](O)C[C@]3(C)[C@]2(C(=O)CCl)O1` [SJ000286948-3, HALCINONIDE], the CHRF288-11 %inh in the test on CHRF288-11 turned out to be 0.4115%. Moreover, in the test on ML-2, the ML-2 %inh is 2.814%. The M07e %inh with M07e was -3.04%. In addition, the CMK %inh with CMK is reported as 7.614%. In the test with MV4-11, the MV4-11 %inh was 4.793%. In addition, the MOLM-13 %inh in the test with MOLM-13 was determined as 15.68%. Moreover, the CMS %inh in the test on CMS came out at 6.83%. Moreover, in the test with U937, the U937 %inh is reported as 10.5%.
On to `CCC(=O)O[C@]1(C(=O)CCl)[C@@H](C)C[C@H]2[C@@H]3C[C@H](F)C4=CC(=O)C=C[C@]4(C)[C@@]3(F)[C@@H](O)C[C@@]21C` [SJ000574311-1, HALOBETASOL PROPIONATE], for which, in the test on CHRF288-11, the CHRF288-11 %inh is 2.781%. Moreover, the ML-2 %inh in the test with ML-2 came out at 0.4055%. For the same compound, the M07e %inh in the test with M07e is 1.449%. Besides, in the test with CMK, the CMK %inh is given as -5.875%. The MV4-11 %inh in the test with MV4-11 turned out to be 1.288%. In addition, the MOLM-13 %inh with MOLM-13 is -1.713%. Further, the CMS %inh in the test with CMS is listed as -1.131%. Also, the U937 %inh in the test on U937 came to 2.458%.
In turn, `CN(C)/N=N/c1[nH]cnc1C(N)=O` [SJ000285718-4, DACARBAZINE] registered a CHRF288-11 %inh with CHRF288-11 of 9.396%. The ML-2 %inh in the test with ML-2 is reported as -0.5509%. Moreover, the M07e %inh with M07e is listed as -1.918%. Moreover, in the test on CMK, the CMK %inh is given as 31.68%. Further, the MV4-11 %inh in the test with MV4-11 came out at 4.433%. Also, the MOLM-13 %inh with MOLM-13 is 31.43%. Moreover, in the test with CMS, the CMS %inh is -1.6%. Besides, in the test on U937, the U937 %inh is listed as 1.118%.
For the compound `CN(C)CCNC(=O)Nc1ccc(N(C)c2ccnc(Nc3ccc(CS(C)(=O)=O)cc3)n2)cc1` [SJ000573239-1, U17983/95/3], the CHRF288-11 %inh in the test on CHRF288-11 worked out at 29.73%. The ML-2 %inh in the test on ML-2 is given as 15.37%. Besides, the M07e %inh in the test with M07e came out at 0.06927%. The CMK %inh in the test on CMK was 26.79%. Further, the MV4-11 %inh in the test with MV4-11 was determined as 73.54%. Also, the MOLM-13 %inh with MOLM-13 was found to be 92.53%. Further, the CMS %inh in the test on CMS is reported as -0.9741%. In the test with U937, the U937 %inh is recorded as -1.201%.
